Results reported in patent US20240252454A1, “COMPOSITION COMPRISING AN INHIBITOR OF MITOCHONDRIAL TRANSCRIPTION” (LEAD DISCOVERY CENTER GMBH, priority 2021, published 2024).

Test system: MDAMB231
Experiment: SRB assay, IMT combined with inhibitor
Type: cell-based
Conditions: MDAMB231 (breast); concentration series of the labelled inhibitor + fixed concentration of IMT (3S)-1-[(2R)-2-[4-(2-chloro-4-fluoro-phenyl)-2-oxo-chromen-7-yl]oxypropanoyl]piperidine-3-carboxylic acid; negative=synergistic, positive=antagonistic
Protocol: Solforhodamine B assay is carried out as described in Voigt W. (2005) Sulforhodamine B Assay and Chemosensitivity. (Methods in Molecular Medicine™, vol 110. Humana Press. https://doi.org/10.1385/1-59259-869-2:039).
The determination of changes in cellular biomass was based on the Solforhodamine B assay format, carried out as described in Voigt W. (2005) Sulforhodamine B Assay and Chemosensitivity. (Methods in Molecular Medicine™, vol 110. Humana Press. https://doi.org/10.1385/1-59259-869-2:039).
All in vitro cell culture experiments were carried out under near physiological glucose concentrations (5 mM) in at least two independent replicates.
To establish the method described, combinations of (3S)-1-[(2R)-2-[4-(2-chloro-4-fluoro-phenyl)-2-oxo-chromen-7-yl]oxypropanoyl]piperidine-3-carboxylic acid and various PARPi were tested with regard to their effect on the cell growth of 33 tumour cell lines from different tissues, in the SRB and CTG assay format. The assay methods and protocols in cell culture and measurement followed the procedure as described in Example 1). […] This initial study was followed by validation experiments in a matrix format and in the CTG assay, as described for Example 1) (Table 6.)

SMILES: O=C(c1cc(Cc2n[nH]c(=O)c3ccccc23)ccc1F)N1CCN(C(=O)C2CC2)CC1 [Olaparib]
- difference between the calculated combinatorial index (BLISS) and the observed combinatorial effect: −0.0488
